Reference: BindingDB's records for doi:10.1074/jbc.M409068200 (Genentech, 2005)
pKi: −log10 of the molar value.

Columns and labels:
Test in all cases: Serine Protease Inhibition Assay
Conditions in all cases: pH 7.8; 22 °C
Plasma kallikrein = Plasma kallikrein (Homo sapiens, UniProt P03952)
Experimental: (§1) The enzyme reactions were initiated by the addition of substrate, and the color developed from the release of p-nitroanilide from each chromogenic substrate was monitored continuously for 5 min at 405 nm on a microtiter plate reader. […] The apparent Ki values were then calculated according to the Cheng-Prusoff equation: Ki = IC50/1 + [S]/Km.

Prothrombin = Prothrombin (Homo sapiens, UniProt P00734)
Experimental: as §1

[1] = biological target: Urokinase-type plasminogen activator (Homo sapiens, UniProt P00749)
Experimental: as §1

Coagulation factor X = Coagulation factor X (Homo sapiens, UniProt P00742)
Experimental: as §1

[2] = biological target: Vitamin K-dependent protein C (Homo sapiens, UniProt P04070)
Experimental: as §1

Serine protease 1 = biological target: T1, Serine protease 1 (Bos taurus, UniProt P00760)
T1 sequence (P00760 whole entry): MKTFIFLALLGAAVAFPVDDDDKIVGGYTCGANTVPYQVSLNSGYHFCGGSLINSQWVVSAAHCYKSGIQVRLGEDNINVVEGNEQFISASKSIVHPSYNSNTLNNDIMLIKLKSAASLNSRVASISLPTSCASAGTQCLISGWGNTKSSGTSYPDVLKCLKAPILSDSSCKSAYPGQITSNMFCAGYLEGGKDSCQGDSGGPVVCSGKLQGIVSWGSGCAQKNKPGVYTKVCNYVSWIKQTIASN
Experimental: as §1

[3] = biological target: Tissue-type plasminogen activator (Homo sapiens, UniProt P00750)
Experimental: as §1

Plasminogen = Plasminogen (Homo sapiens, UniProt P00747)
Experimental: as §1

Plasma kallikrein, sequence (P03952 20-390 limits assumed): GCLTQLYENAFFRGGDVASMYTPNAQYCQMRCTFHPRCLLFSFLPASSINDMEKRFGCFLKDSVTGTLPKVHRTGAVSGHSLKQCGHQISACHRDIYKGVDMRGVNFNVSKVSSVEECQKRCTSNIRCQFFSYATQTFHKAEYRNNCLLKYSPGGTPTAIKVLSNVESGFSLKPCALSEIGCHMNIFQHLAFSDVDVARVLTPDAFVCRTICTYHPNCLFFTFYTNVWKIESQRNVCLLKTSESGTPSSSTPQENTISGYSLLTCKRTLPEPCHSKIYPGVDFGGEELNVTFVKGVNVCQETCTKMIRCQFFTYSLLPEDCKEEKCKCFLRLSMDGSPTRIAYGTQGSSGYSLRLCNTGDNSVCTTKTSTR
Plasma kallikrein, sequence (P03952 391-638 limits assumed): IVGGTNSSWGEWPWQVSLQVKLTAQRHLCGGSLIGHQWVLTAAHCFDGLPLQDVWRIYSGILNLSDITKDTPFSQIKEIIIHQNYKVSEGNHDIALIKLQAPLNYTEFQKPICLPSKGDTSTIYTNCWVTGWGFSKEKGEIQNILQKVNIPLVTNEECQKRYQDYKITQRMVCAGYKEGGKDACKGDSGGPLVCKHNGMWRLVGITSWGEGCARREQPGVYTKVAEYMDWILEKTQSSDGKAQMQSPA
Tissue-type plasminogen activator, sequence (P00750 whole entry): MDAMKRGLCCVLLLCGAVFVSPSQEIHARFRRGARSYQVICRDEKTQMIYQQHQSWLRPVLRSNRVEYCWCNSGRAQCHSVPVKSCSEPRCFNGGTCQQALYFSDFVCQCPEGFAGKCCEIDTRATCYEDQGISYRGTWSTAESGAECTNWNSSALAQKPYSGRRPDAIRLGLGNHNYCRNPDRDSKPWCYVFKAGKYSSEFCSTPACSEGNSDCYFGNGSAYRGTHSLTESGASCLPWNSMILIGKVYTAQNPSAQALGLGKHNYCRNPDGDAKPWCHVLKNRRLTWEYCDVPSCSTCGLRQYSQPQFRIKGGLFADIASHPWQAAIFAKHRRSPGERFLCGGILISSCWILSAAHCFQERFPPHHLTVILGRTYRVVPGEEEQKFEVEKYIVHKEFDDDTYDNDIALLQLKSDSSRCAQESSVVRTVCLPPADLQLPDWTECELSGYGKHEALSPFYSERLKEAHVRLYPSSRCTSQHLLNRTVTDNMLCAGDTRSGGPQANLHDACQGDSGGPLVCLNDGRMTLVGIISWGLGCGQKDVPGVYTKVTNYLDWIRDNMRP
Coagulation factor X, sequence (P00742 41-179 limits assumed): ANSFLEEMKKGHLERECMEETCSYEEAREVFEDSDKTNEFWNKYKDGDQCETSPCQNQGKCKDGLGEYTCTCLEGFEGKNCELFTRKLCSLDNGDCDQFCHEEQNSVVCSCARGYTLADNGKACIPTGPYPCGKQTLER
Coagulation factor X, sequence (P00742 235-488 limits assumed): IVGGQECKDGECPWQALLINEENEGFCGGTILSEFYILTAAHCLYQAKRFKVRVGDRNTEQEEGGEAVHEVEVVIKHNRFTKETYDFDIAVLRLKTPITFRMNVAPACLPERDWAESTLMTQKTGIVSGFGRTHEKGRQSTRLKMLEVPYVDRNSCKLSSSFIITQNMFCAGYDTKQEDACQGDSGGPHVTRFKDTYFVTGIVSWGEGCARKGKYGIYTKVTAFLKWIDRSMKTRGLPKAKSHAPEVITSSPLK
Vitamin K-dependent protein C, sequence (P04070 43-197 limits assumed): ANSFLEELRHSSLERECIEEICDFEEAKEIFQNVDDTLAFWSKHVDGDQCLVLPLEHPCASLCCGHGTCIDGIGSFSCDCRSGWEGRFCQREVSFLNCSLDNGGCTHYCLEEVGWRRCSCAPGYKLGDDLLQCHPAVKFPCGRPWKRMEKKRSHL
Vitamin K-dependent protein C, sequence (P04070 212-461 limits assumed): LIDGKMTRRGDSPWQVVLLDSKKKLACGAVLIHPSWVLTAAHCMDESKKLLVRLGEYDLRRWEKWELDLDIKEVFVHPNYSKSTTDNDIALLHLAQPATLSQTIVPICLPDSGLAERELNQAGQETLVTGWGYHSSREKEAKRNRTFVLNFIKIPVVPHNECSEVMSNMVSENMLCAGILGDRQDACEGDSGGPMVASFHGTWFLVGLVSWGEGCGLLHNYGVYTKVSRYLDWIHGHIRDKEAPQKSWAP
Plasminogen, sequence (P00747 97-580 limits assumed): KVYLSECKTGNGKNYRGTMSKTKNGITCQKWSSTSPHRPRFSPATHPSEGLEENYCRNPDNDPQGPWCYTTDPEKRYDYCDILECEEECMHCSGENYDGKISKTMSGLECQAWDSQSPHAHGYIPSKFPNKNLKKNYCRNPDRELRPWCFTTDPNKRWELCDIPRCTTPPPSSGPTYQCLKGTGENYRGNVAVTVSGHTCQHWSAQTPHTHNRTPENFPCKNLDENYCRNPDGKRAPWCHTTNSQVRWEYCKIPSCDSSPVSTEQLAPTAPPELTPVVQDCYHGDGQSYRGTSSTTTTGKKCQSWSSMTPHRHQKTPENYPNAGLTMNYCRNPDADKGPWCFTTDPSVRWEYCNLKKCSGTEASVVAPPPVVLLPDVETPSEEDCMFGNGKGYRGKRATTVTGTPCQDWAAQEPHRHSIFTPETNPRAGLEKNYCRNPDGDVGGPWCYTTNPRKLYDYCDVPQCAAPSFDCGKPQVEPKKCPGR
Plasminogen, sequence (P00747 581-810 limits assumed): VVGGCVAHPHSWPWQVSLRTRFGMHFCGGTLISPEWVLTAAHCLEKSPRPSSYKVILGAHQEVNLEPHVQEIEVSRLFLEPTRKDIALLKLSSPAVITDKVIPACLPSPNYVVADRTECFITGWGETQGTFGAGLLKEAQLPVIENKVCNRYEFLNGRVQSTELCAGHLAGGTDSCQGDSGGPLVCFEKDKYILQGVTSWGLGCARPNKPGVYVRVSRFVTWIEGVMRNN

pKi (Plasma kallikrein): 6.94
pKi (Prothrombin): 5.44
pKi [1]: < 5.47
pKi (Coagulation factor X): < 5.46
pKi [2]: 7.06
pKi (Serine protease 1): 5.40
pKi [3]: < 5.41
pKi (Plasminogen): 5.92
SMILES: CCOc1cc(OCC)c(F)c([C@@H](Nc2ccc(C(=N)N)c(O)c2)C(=O)NS(=O)(=O)c2cccc(N)c2)c1 [(2R)-N-[(3-aminobenzene)sulfonyl]-2-[(4-carbamimidoyl-3-hydroxyphenyl)amino]-2-(3,5-diethoxy-2-fluorophenyl)acetamide]
